Reference: patent publication US6323365A (Yissum Research Development Company of the Hebrew …, priority 2000, dated 2001)

What was measured:
in vivo = conditions: rat, po
seizure spread = experiment: maximal electroshock (MES) test; conditions: for ED50: Rattus norvegicus, po, read-out: MES anticonvulsant activity (ED50)
seizure threshold = experiment: subcutaneous metrazol (sc Met) test; conditions: Rattus norvegicus, po, read-out: sc Met anticonvulsant activity (ED50)
offspring = conditions: cited from earlier work

Row | Structure (SMILES) | TD50 (in vivo) | potency in MES test relative to VPA (seizure spread; MES test, vs VPA) | ED50 (seizure spread) | PI-MES (protective index): TD50/ED50 (seizure spread; oral, rats, MES) | ED50 (seizure threshold) | teratogenicity (offspring) | potency in MES test relative to (R)-HP-VPD (seizure spread; MES test, vs (R)-HP-VPD (II)) | SI (stereoselective index) = (R)-HP-VPD/(S)-HP-VPD (seizure spread; MES, oral, rats)
1 | CCCC(CCC)C(=O)NCC(C)O (racemic) [HP-VPD (rac)] | > 250 mg/kg | five times more potent than VPA | 92 mg/kg | > 2.7 | > 250 mg/kg | – | – | –
2 | CCCC(CCC)C(=O)NC[C@@H](C)O [(R)-HP-VPD, N-(2-OH-propyl)valpromide] | > 500 mg/kg | – | 117 mg/kg | > 4.3 | – | – | – | –
3 | CCCC(CCC)C(=O)O [VPA, Valproic acid, reference compound] | – | – | 490 mg/kg | – | 180 mg/kg | associated with teragenecity | – | –
4 | CCCC(CCC)C(=O)NC[C@H](C)O [(S)-HP-VPD, N-(2-OH-propyl)valpromide] | > 650 mg/kg | – | 48 mg/kg | > 13.5 | – | – | more than two times more potent than (R)-HP-VPD | 2.4
